Earlier results as cited in patent US6613768B1, “Treatment of female arousal disorder” (Lilly ICOS LLC, priority 1999, dated 2003).
Counter-ions that a name gives are not always drawn.

Tested on: postmenopausal women with sexual dysfunction

women with clitoral discomfort/hypersensitivity who withdrew from the study (of the 7 women affected): 3
clitoral discomfort and hypersensitivity, number of women (thirty-three postmenopausal women): 7 woman
Structure (SMILES): CCCc1nn(C)c2c(=O)[nH]c(-c3cc(S(=O)(=O)N4CCN(C)CC4)ccc3OCC)nc12 [sildenafil, Sildenafil citrate]
